In patent US20250066310A1, “MULTI-SUBSTITUTED URACIL DERIVATIVE AND PREPARATION METHOD THEREFOR AND APPLICATION THEREOF” (HANGZHOU ADAMERCK PHARMLABS INC., priority 2021, published 2025):
Marks after values point to notes of the source that are not given here.

Key:
[1] = test system: mice injected with ellagic acid via the tail vein; experiment: Effect on in vivo clotting time in mice (ellagic acid tail vein injection); conditions: Mus musculus, iv, 100 mg/kg i.g. for 4 days, ellagic acid i.v. 1 h after last dose, vs model group, read-out: Clotting time prolongation (%)
Experimental: The control and model groups were gavaged with distilled water, and the positive clopidogrel group, and the test substance group were gavaged orally (i.g.) with drug solution in a volume of 0.1 mL/10 g for 4 consecutive days. 1 h after the last administration, all groups were injected with 0.15 mL/10 g of 0.3% ellagic acid solution via tail vein injection except for the blank group which was injected with physiological saline: 0.1 ml/10 g. After 5 min, glass capillaries were used for blood collection through the retro-orbital venous plexus, and the appearance time of coagulation filaments was recorded by glass capillaries at 10-second intervals.
Calculation equation for prolongation of clotting time:
Prolongation of clotting time (%)=[(mean value of clotting time in blank or administered group/mean value of clotting time in model group)−1]×100%

[2] = test system: rats with myocardial ischemia-reperfusion injury; experiment: Myocardial ischemia-reperfusion injury caused by coronary artery ligation in rats; format: in vivo; conditions: x ± s, n = 8; for Pathological Score: myocardium
Experimental: Experimental Methods: A model of myocardial ischemia/reperfusion (MI/R) injury caused by coronary artery ligation was established in rats, and animals were grouped into high-dose (20 mg/kg), medium-dose (10 mg/kg), low-dose (5 mg/kg) of the test drug, clopidogrel (7.5 mg/kg), sham, and model groups. Equal volume of 0.5% CMC-Na was administered at 0.5 ml/100 g body weight in both sham and model groups. The drug was administered by gavage (i.g.) once a day for 5 consecutive days. Modeling was performed 30 min after the last administration, and after modeling, 8 successfully modeled rats were selected from each group for subsequent experiments. The sham group was placed a wire under the left anterior descending branch of the coronary artery according to the model preparation method without ligation, and the other groups were modeled according to the model preparation method. The effects of the test drugs on the cardiac infarction rate and the biochemical indexes of creatine kinase (CK), lactate dehydrogenase (LDH), malondialdehyde (MDA), and superoxide dismutase (SOD) in plasma were detected, and TTC staining of the heart was performed to detect the effects of the test drugs on the area of myocardial infarction in MI/R rats.

[3] = test system: rats with autologous thrombus and thrombin-induced cerebral ischemic injury; experiment: Ischemic brain injury induced by autologous thrombus and thrombin in rats (i.v., alone or with urokinase); format: in vivo, SD rats; conditions: n = 10
Experimental: Experimental Methods: A model of cerebral ischemic injury in SD rats was prepared by embolizing the middle cerebral artery of rats with autologous thrombus and thrombin via the external carotid artery to the internal carotid artery and the rats were randomly divided into 5 groups according to behavioral scores, a sham group (only the external carotid artery was isolated); a model-control group (saline was given to both groups in equal volume); urokinase (5000 U/kg) group; compound 1-1 ([…]) group; with 20 animals in each group (10 for detecting the rate of cerebral infarction, and the other 10 for pathological testing). Each group was administered slowly in the tail vein (1 ml per minute) 2 h after modeling, and the decrease in blood flow was monitored after thrombin injection and 120 min after administration. Neurobehavioral scoring was performed on the rats after 24 h to determine the neurological function of the rats; 2,3,5-triphenyltetrazolium chloride (TTC) staining was used to determine the rate of cerebral infarction and cerebral water content, and hematoxylin-eosin (HE) staining was used to observe the pathological damage of the brain in rats administered with the drug 2 h after cerebral ischemia.

[4] = test system: rats with focal permanent cerebral ischemia (MCAO); experiment: Focal permanent cerebral ischemic injury (MCAO), administration from 3 h post-ischemia; format: in vivo, SD rats; conditions: for Number of survivors after 15 days animal: 15 enrolled; for Mortality (%): 15-day; for Neurological function score on day 15: Bederson's method; for Weight on day 1 / Weight on day 5 / Weight on day 15: mean body weight
[5] = test system: acute inflammatory response caused by ellagic acid (serum cytokines); experiment: Antibody microarray detection of serum factors in ellagic acid model mice; format: in vivo, ICR mice; set-up: TNFa / IL-6 / IL-1b / IL-5 / IL-13 / IL-1α / IL-1β / IL-2 / IL-3 / IL-4 / IFNg / CD40: unit not given here
Experimental: Experimental methods: ICR male mice, weighed about 25 g, were randomly divided into four groups: normal group, ellagic acid model group, 1-1 group, and 1-22 group, with four mice in each group. Mice in 1-1 group and 1-22 group were given 1-1, 100 mg/kg and 1-22, 100 mg/kg by gavage once a day respectively. 1 h after the third administration, except for the normal control group, the other three groups of mice were injected into the tail vein with 0.10 mL/10 g of 0.3% ellagic acid saline solution, and 1 h after injection, whole blood was collected from each animal, and centrifuged (3,000 rpm/min) for 10 min after 30 min of standing, and then centrifuged to obtain the serum. The serum from each group of animal was mixed in an EP tube, transported at −80° C., and sent for antibody microarray detection.

[6] = middle and high dose groups compared with the model group
[7] = Table 16, pooled serum, 100 mg/kg by gavage
[8] = Table 17, pooled serum, 100 mg/kg by gavage
[9] = Table 18, pooled serum, 100 mg/kg by gavage
[10] = Table 19, pooled serum, 100 mg/kg by gavage

CCOC(=O)CCNC(=O)CCNc1cc(=O)n(C)c(=O)n1C [Compound 1-1]
change in vivo at 100 mg/kg [1]: 43.3% | Cardiac infarction rate (%) ([2]; 5 mg/kg i.g. once a day for 5 days): 12.12 ± 4.45 % | Cardiac infarction rate (%) ([2]; 10 mg/kg i.g. once a day for 5 days): 10.99 ± 2.39 % | Cardiac infarction rate (%) ([2]; 20 mg/kg i.g. once a day for 5 days): 7.27 ± 1.91**^ΔΔ % | Pathological Score ([2]; 5 mg/kg i.g.): 2.00 ± 0.53 | Pathological Score ([2]; 10 mg/kg i.g.): 1.88 ± 0.83 | Pathological Score ([2]; 20 mg/kg i.g.): 1.75 ± 0.71 | CK (U/mL) ([2]; plasma, 5 mg/kg i.g.): 0.33 ± 0.15 U/mL | LDH (U/L) ([2]; plasma, 5 mg/kg i.g.): 5406.70 ± 458.93*^ΔΔ U/L | MDA ([2]; plasma, 5 mg/kg i.g.): 13.23 ± 2.89 nmol/mL | SOD (U/mL) ([2]; plasma, 5 mg/kg i.g.): 28.29 ± 1.24 U/mL | CK (U/mL) ([2]; plasma, 10 mg/kg i.g.): 0.27 ± 0.11 U/mL | LDH (U/L) ([2]; plasma, 10 mg/kg i.g.): 3732.06 ± 573.02**^ΔΔ U/L | MDA (nmol/mL) ([2]; plasma, 10 mg/kg i.g.): 5.47 ± 1.71**^ΔΔ nmol/mL | SOD (U/mL) ([2]; plasma, 10 mg/kg i.g.): 23.99 ± 2.80 U/mL | CK (U/mL) ([2]; plasma, 20 mg/kg i.g.): 0.08 ± 0.047 U/mL | LDH (U/L) ([2]; plasma, 20 mg/kg i.g.): 4366.03 ± 782.76**^ΔΔ U/L | MDA (nmol/mL) ([2]; plasma, 20 mg/kg i.g.): 8.77 ± 2.19**^ΔΔ nmol/mL | SOD (U/mL) ([2]; plasma, 20 mg/kg i.g.): 41.02 ± 2.33 U/mL | Cerebral infarction rate ([3]; 9 mg/kg i.v., TTC staining, mean ± S.D.): 14.99 ± 10.91 | behavioral score ([3]; 9 mg/kg i.v., after 24 h, Mean ± SD): 1.70 ± 0.82 | cerebral water content (%) ([3]; 9 mg/kg i.v., mean ± S.D.): 80.32 ± 0.97 % | Percentage decrease two hours after administration (%) ([3]; cerebral blood flow, 9 mg/kg i.v. 2 h after modeling, Mean ± SD): 29.24 ± 2.67 % | Percentage decrease after thrombin injection (%) ([3]; cerebral blood flow, before administration, 9 mg/kg group, Mean ± SD): 39.18 ± 4.75% | Pathology Score ([3]; cerebral ischemic areas, 9 mg/kg i.v., mean ± SD): 2.20 ± 1.01 | Number of survivors after 15 days animal ([4]; 10 mg/kg by gavage once a day): 8 | Number of survivors after 15 days animal ([4]; 20 mg/kg by gavage once a day): 11 | Number of survivors after 15 days animal ([4]; 40 mg/kg by gavage once a day): 10 | Mortality (%) ([4]; 10 mg/kg by gavage): 46.67% | Mortality (%) ([4]; 20 mg/kg by gavage): 26.67% | Mortality (%) ([4]; 40 mg/kg by gavage): 33.33% | Neurological function score on day 15 ([4]; 10 mg/kg): 0.88 | Neurological function score on day 15 ([4]; 20 mg/kg): 0.75 | Neurological function score on day 15 ([4]; 40 mg/kg): 0.5 | Weight on day 1 ([4]; 10 mg/kg): 273.73 g | Weight on day 5 ([4]; 10 mg/kg): 240.73 g | Weight on day 15 ([4]; 10 mg/kg): 281.38 g | Weight on day 1 ([4]; 20 mg/kg): 281.93 g | Weight on day 5 ([4]; 20 mg/kg): 253.67 g | Weight on day 15 ([4]; 20 mg/kg): 281.10 g | Weight on day 1 ([4]; 40 mg/kg): 274.93 g | Weight on day 5 ([4]; 40 mg/kg): 288.25 g | Weight on day 15 ([4]; 40 mg/kg): 316.80 g | infarction rate (TTC staining) [4, 6]: significantly reduced | water content [4, 6]: significantly reduced | IL-6 [5, 7]: 18,375.64* | RANTES/ccl5 [5, 7]: 2,825.89* | TNFa [5, 7]: 386.79 | IL-1b ([5]; Table 16, pooled serum, 100 mg/kg by gavage once a day x3, 1 h after ellagic acid): 312.69 | IL-1α [5, 8]: 1,118.99* | IL-1β [5, 8]: 312.69 | IL-2 [5, 8]: 565.56 | IL-3 [5, 8]: 1,106.55 | IL-4 [5, 8]: 1,367.20 | IL-5 [5, 8]: 285.74* | IL-6 [5, 8]: 18,375.64* | IL-13 [5, 8]: 800.30* | Eotaxin/CCL11 [5, 9]: 4,696.55 | MCP1/CCL2 [5, 9]: 3,045.61 | MIP-3a/CCL20 [5, 9]: 1,505.55* | RANTES/CCL5 [5, 9]: 2,825.89* | CD40 [5, 10]: 639.15 | IFNg [5, 10]: 295.07* | number of down-regulated differential proteins ([5]; interleukin factors (Table 17), compared with the model group): four
